US20070072938A1, “DRONABINOL TREATMENT OF DELAYED CHEMOTHERAPY-INDUCED NAUSEA AND VOMITING” (priority 2005, published 2007)
Marks after values point to notes of the source that are not given here.

How the values were obtained:
[1] = test system: patients receiving moderately to highly emetogenic chemotherapy; assay: Randomized, double-blind, placebo-controlled study: antiemetic efficacy in delayed CINV (Days 2-5); format: in vivo, human
Procedure: (§1) A randomized, double-blind, placebo-controlled, parallel-group study evaluating the antiemetic efficacy and tolerability of oral dronabinol alone, dronabinol in combination with ondansetron, ondansetron alone, and placebo in patients receiving moderate to high emetogenic chemotherapy was conducted. All patients received dexamethasone 20 mg and ondansetron 16 mg intravenously prechemotherapy. […] On Day 2, placebo or fixed doses of 10 mg dronabinol, 16 mg ondansetron, or dronabinol plus ondansetron were administered. On Days 3-5, patients received placebo, flexible doses of 10-20 mg dronabinol, 8-16 mg ondansetron, or dronabinol plus ondansetron. Rescue antiemetics were permitted after using the maximum dose of medication. The primary efficacy variable was total response (“TR”) to study medication (TR=nausea intensity<5 mm on a 100-mm visual analog scale, no vomiting/retching, no rescue antiemetic). Secondary efficacy parameters included nausea status and intensity, as well as episodes of vomiting/retching. […] TR and presence/absence of nausea were evaluated using the Fisher's Exact Test. Tolerability was assessed by physical examination and adverse events.
All efficacy analyses were based on the ITT population.
This was a randomized, double-blind, placebo-controlled, parallel-group, 5-day study to evaluate the antiemetic efficacy and safety of oral dronabinol (sole under the trade name, Marinol®) alone, and in combination with ondansetron (sole under the trade name, Zofran®), versus ondansetron alone in patients receiving moderately to highly emetogenic chemotherapy. The investigator obtained written approval from the Institutional Review Board, and the study was conducted in accordance with the Declaration of Helsinki.
Patients who entered the study were to undergo cancer chemotherapy with moderately to highly emetogenic agents on Day 1 when they were randomized into 1 of 4 treatment groups: dronabinol alone (Group Dronabinol), ondansetron alone (Group Ondansetron), combination therapy with dronabinol and ondansetron (Group Dronabinol/Ondansetron), or placebo (Group Placebo). All patients received a standard prechemotherapy regimen of dexamethasone (20 mg) and ondansetron (16 mg). […] Placebo patients received matching placebo prechemotherapy and postchemotherapy on Day 1.
(§2) A kit of open-label antiemetics (metoclopramide 10 mg, prochlorperazine 5 mg, and prochlorperazine 25-mg suppository) was provided to the study participants for use on Days 1 through 8 as rescue medications to treat intolerable nausea and vomiting and/or retching after using the maximum dose of study medication at any dosing interval. Patients recorded the use of rescue medication and returned the unused portion of the kit.
Each morning, patients recorded the number of vomiting and/or retching episodes in the previous day. In addition, the patient recorded the daily presence or absence of nausea and its duration.
The primary efficacy measure was the incidence of total response to treatment following administration of moderately to highly emetogenic chemotherapeutic agents. Total response was defined as no vomiting and/or retching, intensity of nausea <5 mm on a 100-mm Visual Analog Scale (VAS scale 0-100 mm; 0 mm=no nausea; 100 mm=intractable nausea), and no use of rescue medication.
The secondary efficacy analysis included patients who took rescue medication. However, analyses were conducted only on data collected before the use of any rescue medication. The secondary efficacy assessments were complete response, presence or absence of nausea, episodes of vomiting and/or retching, duration of nausea and vomiting and/or retching, intensity of nausea measured by VAS, ECOG (wellness), and QoL. Complete response for vomiting/retching was defined as no vomiting/retching, intensity of nausea of ≦30 mm on the VAS, and no use of rescue therapy.

[2] = test system: patients receiving moderately to highly emetogenic chemotherapy; assay: Safety and tolerability: treatment-emergent adverse events (safety population); details: human, in vivo
Procedure: as §1
AEs and concomitant medications were also assessed.

[3] = test system: patients receiving moderately to highly emetogenic chemotherapy; assay: Other analyses: rescue antiemetic use and compliance with study medication; format: in vivo, human
Procedure: as §2
For the primary efficacy parameter, a logistic regression model was used for the primary analysis and a Cochran-Mantel-Haenszel (“CMH”) test stratified by pooled center was performed as a supportive analysis. Continuous secondary efficacy parameters were analyzed for all pairwise comparisons using a 2-way analysis of variance (“ANOVA”) with treatment and pooled center as fixed factors. For data that was not normally distributed, data were ranked, and an ANOVA was performed on the ranked scores. Categorical secondary efficacy parameters were analyzed for all pairwise comparisons using the CMH test stratified by pooled center. No adjustment for multiple comparisons was performed for the secondary efficacy parameters. No interactions were examined for the secondary efficacy parameters. Compliance with study medication was defined as taking all doses of supplied medication and was measured throughout the trial.

**Q.** What does the source list for `Cc1nccn1CC1CCc2c(c3ccccc3n2C)C1=O` (centres unmarked) [Ondansetron, ondansetron]?
**A.** Duration of nausea: 3-6 h ([1]; Day 2): 0 n (%); Duration of nausea: 6-8 h ([1]; Day 2): 0 n (%); Duration of nausea: 8-10 h ([1]; Day 2): 0 n (%); Duration of nausea: <3 h ([1]; Day 2): 4 (33) n (%); Duration of nausea: >10 h ([1]; Day 2): 1 (8) n (%); Duration of nausea: No nausea reported ([1]; Day 2): 7 (58) n (%); Observed Duration of Vomiting/Retching (mean ± SD) ([1]; Day 2): 2.00 ± 6.93 h; Duration of nausea: 3-6 h ([1]; Day 3): 0 n (%); Duration of nausea: 6-8 h ([1]; Day 3): 1 (10) n (%); Duration of nausea: 8-10 h ([1]; Day 3): 0 n (%); Duration of nausea: <3 h ([1]; Day 3): 1 (10) n (%); Duration of nausea: >10 h ([1]; Day 3): 0 n (%); Duration of nausea: No nausea reported ([1]; Day 3): 8 (80) n (%); Observed Duration of Vomiting/Retching (mean ± SD) ([1]; Day 3): 0.06 ± 0.17 h; Duration of nausea: 3-6 h ([1]; Day 4): 0 n (%); Duration of nausea: 6-8 h ([1]; Day 4): 0 n (%); Duration of nausea: 8-10 h ([1]; Day 4): 0 n (%); Duration of nausea: <3 h ([1]; Day 4): 1 (13) n (%); Duration of nausea: >10 h ([1]; Day 4): 0 n (%); Duration of nausea: No nausea reported ([1]; Day 4): 7 (88) n (%); Observed Duration of Vomiting/Retching (mean ± SD) ([1]; Day 4): 0.00 ± 0.00 h; Duration of nausea: 3-6 h ([1]; Day 5): 1 (14) n (%); Duration of nausea: 6-8 h ([1]; Day 5): 0 n (%); Duration of nausea: 8-10 h ([1]; Day 5): 0 n (%); Duration of nausea: <3 h ([1]; Day 5): 0 n (%); Duration of nausea: >10 h ([1]; Day 5): 0 n (%); Duration of nausea: No nausea reported ([1]; Day 5): 6 (86) n (%); Observed Duration of Vomiting/Retching (mean ± SD) ([1]; Day 5): 0.02 ± 0.06 h; Absence of nausea ([1]; Days 2-5): 64^† %; Absence of nausea (frequency/n) ([1]; Days 2-5): (9/14); Mean vomiting/retching ([1]; Days 2-5): 1.3 episodes/day; Total response (frequency/n) ([1]; Days 2-5): (7/12); Mean nausea intensity ([1]; Days 2-5, 100-mm VAS): 24.0^† mm; Absence of nausea ([1]; Days 2-5, listed as ondansetron): 64%; Total response ([1]; Days 2-5 LOCF end point, TR = nausea <5 mm VAS, no vomiting/retching, no rescue): 58%; Complete Response: No ([1]; LOCF End Point (Days 2-5)): 5 (42) n (%); Complete Response: Yes ([1]; LOCF End Point (Days 2-5)): 7 (58)* n (%); Adverse event: Asthenia [2]: 1 (6) n (%); Adverse event: Chest pain [2]: 2 (13) n (%); Adverse event: Constipation [2]: 2 (13) n (%); Adverse event: Diarrhea [2]: 1 (6) n (%); Adverse event: Dizziness [2]: 1 (6) n (%); Adverse event: Fatigue [2]: 1 (6) n (%); Adverse event: Headache [2]: 3 (19) n (%); Adverse event: Hyperglycemia [2]: 2 (13) n (%); Adverse event: Insomnia [2]: 2 (13) n (%); Patients who permanently discontinued study medication because of a TEAE [2]: 2 (13) n (%); Patients with at least 1 SAE [2]: 1 (6) n (%); Patients with at least 1 TEAE [2]: 14 (88) n (%); Patients with at least 1 TEAE leading to dose reduction [2]: 0 n (%); Patients with at least 1 severe TEAE [2]: 1 (6) n (%); patients who required rescue medicine ([3]; Day 5): 25%; Rescue antiemetics used (patients) ([3]; whole study): 31%
